Ki data for 20 compounds are collected here from patent US20240425482A1, “PYRROLIDINE DERIVATIVES AS DDRS INHIBITORS” (CHIESI FARMACEUTICI S.P.A., priority 2021, published 2024).

One test has as its target DDR1 (Homo sapiens (Human), UniProt Q08345). Description: DDR1 LanthaScreen Europium Kinase Binding assay. On the procedure: (§1) DDR1 and DDR2 binding assays were performed using Life Technologies LanthaScreen™ Europium Kinase Binding assay. The compounds were incubated with 5 nM DDR1 (Carna Biosciences) or 5 nM DDR2 (Life Technologies) for 1 hour at rt in white 384-well OptiPlate (PerkinElmer), containing 20 nM or 10 nM Kinase Tracer 178 respectively and 2 nM Europium labelled anti-GST antibody (Life Technologies) in assay buffer (50 mM HEPES pH 7.5, 10 mM MgCI2, 1 mM EGTA and 0.01% BRIJ35). The ratio of fluorescence emission 665 nm/615 nm after excitation at 340 nm was obtained using the Tecan Spark 20M plate reader. IC50 values were determined in GraphPad Prism 7.0 software, using 4 parameter model: log(inhibitor) vs. response. IC50 values were converted in Ki using the Cheng-Prusoff equation (Ki=IC50/(1+[Tracer]/Kd).
(§2) Compounds C1 and C2 were tested in the same binding assay described above.
A general note: Time-resolved FRET reads energy transfer from a long-lived donor to a nearby acceptor.

In a further test the target is DDR2 (Homo sapiens (Human), UniProt Q16832). Description: DDR2 LanthaScreen Europium Kinase Binding assay. On the procedure: as §1, §2
Chain of DDR2 (Q16832 22-855): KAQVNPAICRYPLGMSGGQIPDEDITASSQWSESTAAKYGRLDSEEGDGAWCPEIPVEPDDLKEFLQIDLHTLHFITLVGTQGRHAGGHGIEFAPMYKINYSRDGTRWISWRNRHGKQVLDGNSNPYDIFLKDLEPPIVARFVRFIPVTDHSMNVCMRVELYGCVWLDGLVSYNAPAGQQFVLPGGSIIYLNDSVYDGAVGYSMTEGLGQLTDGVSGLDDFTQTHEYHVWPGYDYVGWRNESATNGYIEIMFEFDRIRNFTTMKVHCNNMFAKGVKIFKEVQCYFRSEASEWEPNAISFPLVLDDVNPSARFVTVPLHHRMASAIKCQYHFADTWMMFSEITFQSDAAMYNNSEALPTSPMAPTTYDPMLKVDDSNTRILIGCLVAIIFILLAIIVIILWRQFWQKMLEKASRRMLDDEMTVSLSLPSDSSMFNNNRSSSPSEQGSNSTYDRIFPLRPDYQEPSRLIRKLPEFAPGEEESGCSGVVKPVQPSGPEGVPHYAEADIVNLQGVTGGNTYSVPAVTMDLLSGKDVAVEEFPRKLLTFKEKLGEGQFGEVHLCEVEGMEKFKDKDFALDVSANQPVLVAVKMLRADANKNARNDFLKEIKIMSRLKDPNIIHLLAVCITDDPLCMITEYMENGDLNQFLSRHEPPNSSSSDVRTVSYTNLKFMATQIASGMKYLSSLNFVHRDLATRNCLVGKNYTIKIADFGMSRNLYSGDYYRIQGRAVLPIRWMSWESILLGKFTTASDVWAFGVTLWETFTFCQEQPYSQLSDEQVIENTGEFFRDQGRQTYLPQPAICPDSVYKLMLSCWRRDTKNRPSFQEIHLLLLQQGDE
Where [1] appears, read: binding, 5 nM DDR1, 20 nM Kinase Tracer 178, 1 hour at rt, Ki from IC50 by Cheng-Prusoff, read-out: Ki DDR1.
[2] abbreviates: binding, 5 nM DDR2, 10 nM Kinase Tracer 178, 1 hour at rt, Ki from IC50 by Cheng-Prusoff, read-out: Ki DDR2.

Structures are written as SMILES. Read-outs that look alike come from different tables or passages of the source.

Chain of DDR1 (Q08345 19-913): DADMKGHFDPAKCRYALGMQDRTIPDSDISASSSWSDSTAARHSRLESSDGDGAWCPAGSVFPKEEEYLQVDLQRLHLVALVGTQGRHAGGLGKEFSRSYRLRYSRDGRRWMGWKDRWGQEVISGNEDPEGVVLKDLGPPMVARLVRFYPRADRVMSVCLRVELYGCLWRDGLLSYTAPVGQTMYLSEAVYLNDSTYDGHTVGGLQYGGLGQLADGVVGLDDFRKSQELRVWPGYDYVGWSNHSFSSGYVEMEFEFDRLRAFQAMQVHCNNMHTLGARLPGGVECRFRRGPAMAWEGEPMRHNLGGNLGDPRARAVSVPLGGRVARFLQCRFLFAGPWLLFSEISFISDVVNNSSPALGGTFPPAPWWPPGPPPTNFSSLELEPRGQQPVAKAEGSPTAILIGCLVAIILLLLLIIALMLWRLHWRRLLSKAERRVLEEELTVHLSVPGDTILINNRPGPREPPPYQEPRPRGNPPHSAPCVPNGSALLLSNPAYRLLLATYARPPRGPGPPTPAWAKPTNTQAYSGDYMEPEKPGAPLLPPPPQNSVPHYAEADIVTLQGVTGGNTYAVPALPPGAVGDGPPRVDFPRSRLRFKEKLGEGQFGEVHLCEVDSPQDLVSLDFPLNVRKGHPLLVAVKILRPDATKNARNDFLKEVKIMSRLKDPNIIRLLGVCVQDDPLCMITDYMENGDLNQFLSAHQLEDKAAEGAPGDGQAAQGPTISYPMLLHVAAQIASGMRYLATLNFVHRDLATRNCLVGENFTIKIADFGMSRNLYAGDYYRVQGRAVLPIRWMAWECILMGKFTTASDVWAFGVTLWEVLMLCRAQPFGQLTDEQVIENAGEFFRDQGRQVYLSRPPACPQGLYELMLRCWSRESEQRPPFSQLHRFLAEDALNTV

Regarding `Cc1ccc(C(=O)Nc2cccc(C(F)(F)F)c2)cc1C1CCN(Cc2cccnc2)C1` (stereo not shown) [Compound C2, 4-methyl-3-(1-(pyridin-3-ylmethyl)pyrrolidin-3-yl)-N-(3-(trifluoromethyl)phenyl)benzamide, reference compound], the Ki was determined as 571 nM on DDR1 (same binding assay, numeric values, read-out: DDR1 Ki) and 764 nM at DDR2 (same binding assay, numeric values, read-out: DDR2 Ki).
Take `Cc1ccc(C(=O)Nc2ccc(CN3CCOCC3)c(C(F)(F)F)c2)cc1[C@@H]1CCN(c2cncc(C(N)=O)c2)C1` [Example 56, (S)-5-(3-(2-methyl-5-((4-(morpholinomethyl)-3-(trifluoromethyl)phenyl)carbamoyl)phenyl)pyrrolidin-1-yl)nicotinamide]: the inhibitory constant (Ki) was below 10 nM on DDR1 (setting [1]) and 10 to 25 nM on DDR2 (setting [2]).
In the case of `Cc1ccc(C(=O)Nc2cccc(C(F)(F)F)c2)cc1[C@@H]1CCN(c2cncc(C(F)F)c2)C1` [Example 38, (S)-3-(1-(5-(difluoromethyl)pyridin-3-yl)pyrrolidin-3-yl)-4-methyl-N-(3-(trifluoromethyl)phenyl)benzamide], the Ki is below 10 nM on DDR1 (setting [1]) and 10 to 25 nM at DDR2 (setting [2]).
`CNC(=O)c1cncc(N2CCC(c3cc(C(=O)Nc4cccc(C(F)(F)F)c4)ccc3C)C2)c1` (stereo not shown) [Example 10, N-methyl-5-(3-(2-methyl-5-((3-(trifluoromethyl)phenyl)carbamoyl)phenyl)pyrrolidin-1-yl)nicotinamide]: the figures for the inhibition constant Ki on DDR1 (setting [1]) and on DDR2 (setting [2]) were below 10 nM and 10 to 25 nM, respectively.
As to `Cc1ccc(C(=O)Nc2cccc(C(F)(F)F)c2)cc1[C@@H]1CCN(c2ccc(N)nc2)C1` [Example 50, (S)-3-(1-(6-aminopyridin-3-yl)pyrrolidin-3-yl)-4-methyl-N-(3-(trifluoromethyl)phenyl)benzamide], the Ki at DDR1 (setting [1]) was below 10 nM; on DDR2 (setting [2]) it was 25 to 60 nM.
`COCCNC(=O)c1cncc(N2CC[C@@H](c3cc(C(=O)Nc4cccc(C(F)(F)F)c4)ccc3C)C2)c1` [Example 35, (S)-N-(2-methoxyethyl)-5-(3-(2-methyl-5-((3-(trifluoromethyl)phenyl)carbamoyl)phenyl)pyrrolidin-1-yl)nicotinamide]: the inhibition constant (Ki) on DDR1 (setting [1]) and at DDR2 (setting [2]) was below 10 nM each time.
With `Cc1ccc(C(=O)Nc2cccc(C(F)(F)F)c2)cc1C1CCN(c2ccnc(C(N)=O)c2)C1` (single isomer, unassigned) [Example 54, 4-(3-(2-methyl-5-((3-(trifluoromethyl)phenyl)carbamoyl)phenyl)pyrrolidin-1-yl)picolinamide], the Ki at DDR1 (setting [1]) and on DDR2 (setting [2]) was below 10 nM throughout.
Turning to `Cc1ccc(C(=O)Nc2cccc(C(F)(F)F)c2)cc1[C@H]1CCN(c2cccnc2)C1` [Example 15, (R)-4-methyl-3-(1-(pyridin-3-yl)pyrrolidin-3-yl)-N-(3-(trifluoromethyl)phenyl)benzamide], the figures for the Ki at DDR1 (setting [1]) and on DDR2 (setting [2]) were 10 to 25 nM and 25 to 60 nM, respectively.
The like results for `CC(=O)Nc1cncc(N2CC[C@@H](c3cc(C(=O)Nc4cccc(C(F)(F)F)c4)ccc3C)C2)c1` [Example 40, (S)-3-(1-(5-acetamidopyridin-3-yl)pyrrolidin-3-yl)-4-methyl-N-(3-(trifluoromethyl)phenyl)benzamide] were, in that order, below 10 nM and below 10 nM.
As for `Cc1ccc(C(=O)Nc2cccc(C(F)(F)F)c2)cc1C1CCN(c2ccnc(C(N)=O)c2)C1` (single isomer, unassigned) [Example 55, 4-(3-(2-methyl-5-((3-(trifluoromethyl)phenyl)carbamoyl)phenyl)pyrrolidin-1-yl)picolinamide], the results for the Ki at DDR1 (setting [1]) and on DDR2 (setting [2]) were 10 to 25 nM and 25 to 60 nM, respectively.
As to `Cc1ccc(C(=O)Nc2cccc(C(F)(F)F)c2)cc1[C@@H]1CCN(c2cncc(C(N)=O)c2)C1` [Example 19, (S)-5-(3-(2-methyl-5-((3-(trifluoromethyl)phenyl)carbamoyl)phenyl)pyrrolidin-1-yl)nicotinamide], the Ki at DDR1 (setting [1]) and on DDR2 (setting [2]) was below 10 nM in each case.
Consider `Cc1ccc(C(=O)Nc2cccc(C(F)(F)F)c2)cc1C1CCN(c2cncc(OCCN3CCOCC3)c2)C1` (stereo not shown) [Example 5, 4-methyl-3-(1-(5-(2-morpholinoethoxy)pyridin-3-yl)pyrrolidin-3-yl)-N-(3-(trifluoromethyl)phenyl)benzamide], for which the figures for the Ki on DDR1 (setting [1]) and at DDR2 (setting [2]) were below 10 nM and 25 to 60 nM, respectively.
For `Cc1ccc(C(=O)Nc2cccc(C(F)(F)F)c2)cc1[C@@H]1CCN(c2cnc3ccnn3c2)C1` [Example 43, (S)-4-methyl-3-(1-(pyrazolo[1,5-a]pyrimidin-6-yl)pyrrolidin-3-yl)-N-(3-(trifluoromethyl)phenyl)benzamide] the same measures were 25 to 60 nM and 25 to 60 nM.
In the case of `Cc1ccc(C(=O)Nc2cccc(C(F)(F)F)c2)cc1[C@@H]1CCN(c2cncc(-c3cnn(C)c3)c2)C1` [Example 52, (S)-4-methyl-3-(1-(5-(1-methyl-1H-pyrazol-4-yl)pyridin-3-yl)pyrrolidin-3-yl)-N-(3-(trifluoromethyl)phenyl)benzamide], the Ki on DDR1 (setting [1]) and on DDR2 (setting [2]) was below 10 nM each time.
`Cc1ccc(C(=O)Nc2cccc(C(F)(F)F)c2)cc1C1CCN(c2cncc(OCCN(C)C)c2)C1` (stereo not shown) [Example 23, 3-(1-(5-(2-(dimethylamino)ethoxy)pyridin-3-yl)pyrrolidin-3-yl)-4-methyl-N-(3-(trifluoromethyl)phenyl)benzamide]: the Ki at DDR1 (setting [1]) and on DDR2 (setting [2]) was below 10 nM throughout.
Turning to `Cc1ccc(C(=O)Nc2cccc(C(F)(F)F)c2)cc1C1CCN(c2cncc(C(=O)NCCN(C)C)c2)C1` (stereo not shown) [Example 7, N-(2-(dimethylamino)ethyl)-5-(3-(2-methyl-5-((3-(trifluoromethyl)phenyl)carbamoyl)phenyl)pyrrolidin-1-yl)nicotinamide], the Ki on DDR1 (setting [1]) and at DDR2 (setting [2]) was below 10 nM throughout.
Regarding `Cc1ccc(C(=O)Nc2cccc(C(F)(F)F)c2)cc1C1CCN(c2cncc(OCCN3CCN(C)CC3)c2)C1` (stereo not shown) [Example 6, 4-methyl-3-(1-(5-(2-(4-methylpiperazin-1-yl)ethoxy)pyridin-3-yl)pyrrolidin-3-yl)-N-(3-(trifluoromethyl)phenyl)benzamide], the Ki on DDR1 (setting [1]) and on DDR2 (setting [2]) was below 10 nM each time.
On to `Cc1ccc(C(=O)Nc2cccc(C(F)(F)F)c2)cc1[C@@H]1CCN(c2cncc(Nc3cnn(C)c3)c2)C1` [Example 45, (S)-4-methyl-3-(1-(5-((1-methyl-1H-pyrazol-4-yl)amino)pyridin-3-yl)pyrrolidin-3-yl)-N-(3-(trifluoromethyl)phenyl)benzamide], for which the Ki at DDR1 (setting [1]) is below 10 nM; at DDR2 (setting [2]), 10 to 25 nM.
`COCCn1cc(Nc2ccc(N3CC[C@@H](c4cc(C(=O)Nc5cccc(C(F)(F)F)c5)ccc4C)C3)cn2)cn1` [Example 47, (S)-3-(1-(6-((1-(2-methoxyethyl)-1H-pyrazol-4-yl)amino)pyridin-3-yl)pyrrolidin-3-yl)-4-methyl-N-(3-(trifluoromethyl)phenyl)benzamide]: the inhibition constant (Ki) on DDR1 (setting [1]) fell in the range of 10 to 25 nM; at DDR2 (setting [2]), 25 to 60 nM.
For `Cc1ccc(C(=O)Nc2cccc(C(F)(F)F)c2)cc1[C@@H]1CCN(c2cncc(C(=O)N3CCOCC3)c2)C1` [Example 33, (S)-4-methyl-3-(1-(5-(morpholine-4-carbonyl)pyridin-3-yl)pyrrolidin-3-yl)-N-(3-(trifluoromethyl)phenyl)benzamide], the Ki on DDR1 (setting [1]) was below 10 nM; at DDR2 (setting [2]), 10 to 25 nM.

As a reminder, the Ki is the dissociation constant of the complex between target and ligand, obtained from inhibition or displacement.
